Measured values published in US20220016048A1, “CANNABIDIOL-TYPE CANNABINOID COMPOUND” (GW Research Limited, priority 2018, published 2022).
Entries after “also recorded” stand apart in the source; their conditions may differ. Read-outs that look alike come from different tables or passages of the source.

Experiments:
[1] = system: Salmonella typhimurium (TA98, TA100, TA1535, TA1537 and TA102); assay: Ames test; type: cell-based; conditions: absence and presence of S-9
Description: The aim of this study was to evaluate the potential mutagenic activity of CBD-C4 by examining its ability to revert five histidine-requiring strains of Salmonella typhimurium in the absence and presence of a rat liver metabolising system (S-9).
Control treatments were performed with 2-nitrofluorene (2NF) at a final concentration of 5 μg/plate; Sodium azide (NaN3) at a final concentration of 2 μg/plate; 9-aminoacridine (AAC) at a final concentration of 50 μg/plate; Mitomycin C (MMC) at a final concentration of 0.2 μg/plate; Benzo[a]pyrene (B[a]P) at a final concentration of 10 μg/plate; and 2-aminoanthracene (AAN) at a final concentration of 5 and 20 μg/plate.
Treatments were carried out both in the absence and presence of S-9 by addition of either buffer solution or 10% S-9 mix respectively.
Five strains of Salmonella typhimurium bacteria (TA98, TA100, TA1535, TA1537 and TA102) were used in this study.
Bacteria were cultured at 37±1° C. for 10 hours in nutrient broth, containing ampicillin or ampicillin and tetracycline as appropriate, to provide bacterial cultures in the range of approximately 10^8 to 10^9 cells/mL, based on cell count data from testing of each strain batch. […]
Following incubation, these plates were examined for evidence of toxicity to the background lawn, and where possible revertant colonies were counted. […]

DNA damage in the liver = assay: Alkaline Comet assay; type: in vivo, rat
Description: (§1) CBD-C4 was tested for its potential to induce micronuclei (MN) in the polychromatic erythrocytes (PCE) of the bone marrow of treated rats to induce DNA damage in the liver of the same animals.
(§2) CBD-C4 was administered at a dose of 125, 250 and 500 mg/kg/day during this study. Vehicle and a positive control of ethyl methanesulfonate (EMS) at a dose of 150 mg/kg/day were tested alongside the CBD-C4.
(§3) A range finding study was performed on 9 male young adult out-bred Sprague Dawley rats justifying the chosen dose levels of CBD-C4 used during the study.
(§4) Animals were allocated into groups of six with the exception of the positive control which comprised three animals.
(§5) Rats were dosed by oral gavage with test article suspended in sesame oil, vehicle (sesame oil) or positive control.
(§6) Blood samples were taken for bioanalysis and tissue samples were removed from animals at necropsy from the liver and femur.
(§7) Bone marrow sampling, micronucleus slide preparation and comet cell suspensions were undertaken to determine level of toxicity of CBD-C4.

Rat micronucleus assay = type: in vivo; conditions: Sprague Dawley, rat, in vivo; male rats, oral gavage; read-out: estimate of the maximum tolerated dose
Description: as §1, §2, §3, §4, §5, §6, §7

[2] = system: pregnant Wistar (Han) rats; assay: Embryo-foetal development study in rats; type: in vivo, rat
Description: (§8) The objective of the study was to determine the effects of CBD-C4 on the embryonic and foetal development of the rat. The toxicokinetic profile of CBD-C4 was also assessed.
(§9) Three groups of 20 time-mated female Wistar (Han) rats were given CBD-C4 once daily by the oral (gavage) route from Day 6 to Day 17 of gestation at dose levels of 1, 10 or 100 mg/kg/day (at a constant dose volume of 5 mL/kg), to cover the period of organogenesis.
(§10) A similar group of rats was given the vehicle, sesame oil, following the same regimen to act as controls.
(§11) Blood samples were taken for toxicokinetic evaluation at pre-dose, 1, 2, 4, 6 and 24 hours after dosing on Days 6 and 17 of gestation. Clinical observations, body weight and food consumption were recorded. On Day 21 of gestation (GD 21) the females were euthanised, and the progress and outcome of pregnancy was evaluated.
(§12) Foetuses were evaluated for external, visceral and skeletal malformations and […]

[3] = Embryo-foetal development study in rats; type: in vivo, rat; conditions: female, Wistar (Han), rat, in vivo
Description: as §8, §9, §10, §11, §12

mouse model of seizure = assay: maximal electroshock (MES) test in the mouse; type: in vivo; conditions: for decrease in the number of mice showing tonic convulsions, as compared with vehicle controls: p<0.001
Description: Mice were administered MES (50 mA, rectangular current: 0.6 ms pulse width, 0.4 s duration, 50 Hz) via corneal electrodes connected to a constant current shock generator (Ugo Basile: type 7801). The number of tonic convulsions was recorded.
Twelve mice were studied per group. The test was performed blind.
The test substance, CBD-C4, was evaluated at 5 doses (3, 10, 30, 100 and 200 mg/kg), administered i.p. 60 minutes before MES, and compared with a vehicle control group (administered under the same experimental conditions).
Diazepam (2 mg/kg i.p.), administered i.p. 30 minutes before MES, was used as a reference substance and was compared with a vehicle group (administered i.p. 60 minutes before MES).
Data was analysed by comparing treated groups with the appropriate vehicle control using Fisher's Exact Probability tests.

[4] = 1, 10 or 100 mg/kg/day oral, GD 6-17

## C=C(C)[C@@H]1CCC(C)=C[C@H]1c1c(O)cc(CCCC)cc1O [CBD-C4, (1′R,2′R)-4-butyl-5′-methyl-2′-(prop-1-en-2-yl)-1′,2′,3′,4′-tetrahydro-[1,1′-biphenyl]-2,6-diol]
[1]; 5-5000 μg/plate, all test strains
  increases in revertant numbers vs concurrent vehicle control: no increases in revertant numbers
[1]; five strains
  mutagenic activity: No genotoxicity was observed; also recorded: no evidence of any CBD-C4 mutagenic activity; also recorded: does not induce mutation
DNA damage in the liver; 125, 250 and 500 mg/kg/day oral gavage
  % hedgehogs in liver: no dose-related increase
DNA damage in the liver; all groups, 125, 250 and 500 mg/kg/day oral gavage
  group mean tail intensity and tail moment: comparable with the group mean vehicle control data
DNA damage in the liver; up to 500 mg/kg/day oral gavage
  DNA damage in the liver (Comet assay): did not induce DNA damage; also recorded: No genotoxicity was observed
Rat micronucleus assay
  MTD: ~500 mg/kg/day
[2]; 1 mg/kg/day
  mean body weight of females: unaffected
[2]; 10 mg/kg/day, different organ systems, no developmental pattern
  foetal malformations: two foetuses with malformations
[2]; 100 mg/kg/day, two days after the start of dosing, compared with controls
  mean food consumption: Lower mean food consumption
[2]; 1, 10 or 100 mg/kg/day
  CBD-C4-related foetal malformations: no CBD-C4-related foetal malformations
  mean foetal weight and percentage of male foetuses: no effect
  pregnancy parameters (number of implantations, pre- or post-implantation losses, number of live foetuses): no effect
[2]; [4]
  mortality: no mortality
  treatment-related clinical observations: no treatment-related clinical observations
[2]; 1 or 10 mg/kg/day
  mean food consumption: unaffected
[2]; 10 or 100 mg/kg/day, one day after the start of dosing on Day 6 of gestation
  mean body weight of females: Dose-related mean body weight loss
[2]; any of the groups maternally dosed
  foetal variations: no noteworthy foetal variations
[2]; dose levels up to 100 mg/kg/day, pregnant rats
  tolerability: well tolerated
[2]; maternally dosed at 1 or 100 mg/kg/day
  foetal malformations: no malformations
[3]; oral, embryo-foetal development study, sesame oil formulation (summary), read-out: NOAEL
  NOAEL: 100 mg/kg
[3]; oral gavage GD 6-17, read-out: NOAEL for maternal and embryo-foetal toxicity
  NOAEL: 100 mg/kg/day
Mouse model of seizure; 100 mg/kg i.p. 60 minutes before MES
  decrease in the number of mice showing tonic convulsions, as compared with vehicle controls: −100%
Mouse model of seizure; 200 mg/kg i.p. 60 minutes before MES
  decrease in the number of mice showing tonic convulsions, as compared with vehicle controls: −100%
Mouse model of seizure; lower doses 3, 10 and 30 mg/kg i.p. 60 minutes before MES
  effect on number of mice showing tonic convulsions: No effects
